Drawing on patent publication US20260028365A1 (BIOGEN MA INC., priority 2022, published 2026), this text covers IC50 for eight compounds.

Where two headings read alike, the source gives them in different places.

One experiment has as its target JH2 domain of human Tyk2 (Homo sapiens (Human), UniProt P29597). Kind of experiment: JH2 Biochemical Assay (TR-FRET probe displacement). It counts as binding. The protocol: The inhibitory potency of compounds of the disclosure against the kinase activity of recombinantly generated JH2 domain of human Tyk2 was evaluated in a plate-based assay using a TR-FRET assay platform. Briefly, 2 nM of recombinant JH2 domain [10×His-tagged TYK2 JH2 domain (amino acid 575-876)] was combined with 2 nM probe ((S)-6-amino-9-(2-carboxy-4-((1-(3-(8-methyl-5-(methylamino)-8H-imidazo[4,5-d]thiazolo[5,4-b]pyridin-2-yl)phenyl)ethyl)carbamoyl)phenyl)-3-iminio-5-sulfo-3H-xanthene-4-sulfonate), 0.1 nM Tb-labeled anti-His antibody, and compounds of disclosure for 60 minutes. Compounds are tested at either 10 μM or 1 μM top concentration, 10 points of 3-fold dilution. The TR-FRET signal inversely correlates to the amount of probe displaced by compounds and signal was calculated by taking the ratio of fluorescence at 520 nm and 495 nm. The data was normalized and the percent activity versus log concentration of compound was fitted with a 4-parameter logistic model to generate IC50 curves.
(In general: In TR-FRET formats the signal depends on donor and acceptor labels being close together.)

For a further experiment, the target named is Tyk2 (Homo sapiens (Human), UniProt P29597). Nature of the experiment: pSTAT4 Cell Assay (MSD, NK92 cells). The format is cell-based.
Chain of Tyk2 (P29597 whole entry, the tested form may be a part): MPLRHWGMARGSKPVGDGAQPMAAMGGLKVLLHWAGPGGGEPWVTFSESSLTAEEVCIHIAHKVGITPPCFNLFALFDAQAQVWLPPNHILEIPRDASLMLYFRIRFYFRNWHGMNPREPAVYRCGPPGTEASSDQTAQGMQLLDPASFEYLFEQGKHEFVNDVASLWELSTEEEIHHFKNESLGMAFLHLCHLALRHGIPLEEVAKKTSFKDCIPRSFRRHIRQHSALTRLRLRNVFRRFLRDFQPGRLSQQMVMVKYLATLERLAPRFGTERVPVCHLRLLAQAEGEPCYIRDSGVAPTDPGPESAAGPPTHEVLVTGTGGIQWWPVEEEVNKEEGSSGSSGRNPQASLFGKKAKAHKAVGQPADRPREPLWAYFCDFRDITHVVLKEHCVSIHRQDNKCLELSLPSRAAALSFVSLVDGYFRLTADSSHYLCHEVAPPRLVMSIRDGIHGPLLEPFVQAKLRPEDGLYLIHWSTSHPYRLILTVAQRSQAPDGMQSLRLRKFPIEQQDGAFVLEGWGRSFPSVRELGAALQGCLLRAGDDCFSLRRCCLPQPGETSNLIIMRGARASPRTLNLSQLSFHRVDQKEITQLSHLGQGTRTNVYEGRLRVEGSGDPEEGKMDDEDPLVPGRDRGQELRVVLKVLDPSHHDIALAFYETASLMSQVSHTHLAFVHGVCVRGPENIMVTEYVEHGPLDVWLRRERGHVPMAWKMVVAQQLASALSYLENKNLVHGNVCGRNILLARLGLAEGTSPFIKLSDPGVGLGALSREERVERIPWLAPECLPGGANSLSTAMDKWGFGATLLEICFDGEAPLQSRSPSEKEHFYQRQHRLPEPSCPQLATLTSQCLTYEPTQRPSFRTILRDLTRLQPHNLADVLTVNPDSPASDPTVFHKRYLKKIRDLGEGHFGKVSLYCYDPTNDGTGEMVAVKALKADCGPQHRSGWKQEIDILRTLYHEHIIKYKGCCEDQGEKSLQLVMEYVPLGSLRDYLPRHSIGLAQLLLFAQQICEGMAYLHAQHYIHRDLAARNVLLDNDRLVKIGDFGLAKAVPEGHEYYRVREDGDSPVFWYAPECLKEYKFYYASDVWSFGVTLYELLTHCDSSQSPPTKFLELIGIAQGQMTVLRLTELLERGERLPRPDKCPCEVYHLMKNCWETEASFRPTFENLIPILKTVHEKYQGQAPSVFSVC
Setting [1] is: JH2 domain of human Tyk2, TR-FRET probe displacement.
[2] abbreviates: TR-FRET probe displacement, JH2 domain.
Where [3] appears, read: TR-FRET probe displacement, JH2 domain of human Tyk2.

Chain of JH2 domain of human Tyk2 (P29597 575-876): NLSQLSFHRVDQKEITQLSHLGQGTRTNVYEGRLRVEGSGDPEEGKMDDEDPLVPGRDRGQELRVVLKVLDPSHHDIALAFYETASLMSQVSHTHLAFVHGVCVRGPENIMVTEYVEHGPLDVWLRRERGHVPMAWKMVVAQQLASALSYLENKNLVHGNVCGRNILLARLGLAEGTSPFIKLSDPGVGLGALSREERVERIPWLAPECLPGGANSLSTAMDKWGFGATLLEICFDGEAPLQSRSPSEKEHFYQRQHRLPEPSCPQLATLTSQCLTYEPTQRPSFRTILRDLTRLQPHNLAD

As to `CCOc1cnc(NC(C)=O)cc1Nc1cc(C)nc(C2CC2(C)C)n1` (racemic) [Example 518, rac-(R)-N-(4-((2-(2,2-dimethylcyclopropyl)-6-methylpyrimidin-4-yl)amino)-5-ethoxypyridin-2-yl)acetamide], the half-maximal inhibitory concentration (IC50) (as a rule, the concentration needed to halve the response being measured) on JH2 domain of human Tyk2 (setting [1]) is at most 10 nM; on Tyk2 (MSD), 100 to 1000 nM.

Consider `CC(=O)Nc1cc(Nc2cc(C)nc(C(C)(F)F)n2)c(-c2cccc(C(C)O)n2)cn1` (racemic) [Example 638, rac-(R)-N-(4′-((2-(1,1-difluoroethyl)-6-methylpyrimidin-4-yl)amino)-6-(1-hydroxyethyl)-[2,3′-bipyridin]-6′-yl)acetamide], for which the IC50 on JH2 domain of human Tyk2 (setting [1]) and against Tyk2 (MSD) was at most 10 nM each time.

For the compound `COC1CCN(c2ccc(-c3cnc(NC(C)=O)cc3Nc3ccnc(C(C)(F)F)n3)nn2)C1` (racemic) [Example 873, rac-(R)-N-(4-((2-(1,1-difluoroethyl)pyrimidin-4-yl)amino)-5-(6-(3-methoxypyrrolidin-1-yl)pyridazin-3-yl)pyridin-2-yl)acetamide], the IC50 at JH2 domain of human Tyk2 (setting [2]) and on Tyk2 was at most 10 nM throughout.

Turning to `CC(=O)Nc1cc(Nc2ccnc(C(C)(F)F)n2)c(-c2ccc(CN3C[C@H]4C[C@@H]3CO4)cn2)cn1` (racemic) [Example 884, rac-N-(5-(((1R,4R)-2-oxa-5-azabicyclo[2.2.1]heptan-5-yl)methyl)-4′-((2-(1,1-difluoroethyl)pyrimidin-4-yl)amino)-[2,3′-bipyridin]-6′-yl)acetamide], the IC50 at JH2 domain of human Tyk2 (setting [2]) and on Tyk2 was at most 10 nM each time.

Turning to `CC(=O)Nc1cc(Nc2cc(C)nc(C(C)(F)F)n2)c([C@@H]2C[C@@H]2C#N)cn1` (relative stereo) [Example 810, rel-N-(5-((1R,2S)-2-cyanocyclopropyl)-4-((2-(1,1-difluoroethyl)-6-methylpyrimidin-4-yl)amino)pyridin-2-yl)acetamide], the IC50 on JH2 domain of human Tyk2 (setting [2]) was 10 to 100 nM; on Tyk2, at least 1000 nM.

Consider `CC(=O)Nc1cc(Nc2cc(C)nc(C(C)(F)F)n2)c([C@H]2CCCO2)cn1` (single isomer, unassigned) [Example 278, (R)-N-(4-((2-(1,1-difluoroethyl)-6-methylpyrimidin-4-yl)amino)-5-(tetrahydrofuran-2-yl)pyridin-2-yl)acetamide or (S)—N-(4-((2-(1,1-difluoroethyl)-6-methylpyrimidin-4-yl)amino)-5-(tetrahydrofuran-2-yl)pyridin-2-yl)acetamide], for which the half-inhibitory concentration (IC50) on JH2 domain of human Tyk2 (setting [3]) is 10 to 100 nM; on Tyk2 (MSD) it was at least 1000 nM.

Turning to `CC(=O)Nc1cc(Nc2cc(C)nc(C(C)(F)F)n2)c([C@@H]2CCCO2)cn1` (single isomer, unassigned) [Example 279, (S)—N-(4-((2-(1,1-difluoroethyl)-6-methylpyrimidin-4-yl)amino)-5-(tetrahydrofuran-2-yl)pyridin-2-yl)acetamide or (R)-N-(4-((2-(1,1-difluoroethyl)-6-methylpyrimidin-4-yl)amino)-5-(tetrahydrofuran-2-yl)pyridin-2-yl)acetamide], the values for the IC50 on JH2 domain of human Tyk2 (setting [3]) and at Tyk2 (MSD) were 10 to 100 nM and 100 to 1000 nM, respectively.

On to `CC(=O)Nc1cc(Nc2cc(C)nc(C(C)(F)F)n2)c(OC[C@@H]2CCCO2)cn1` (single isomer, unassigned) [Example 293, (S)-N-(4-((2-(1,1-difluoroethyl)-6-methylpyrimidin-4-yl)amino)-5-((tetrahydrofuran-2-yl)methoxy)pyridin-2-yl)acetamide or (R)-N-(4-((2-(1,1-difluoroethyl)-6-methylpyrimidin-4-yl)amino)-5-((tetrahydrofuran-2-yl)methoxy)pyridin-2-yl)acetamide], for which the values for the IC50 on JH2 domain of human Tyk2 (setting [3]) and against Tyk2 (MSD) were at most 10 nM and 10 to 100 nM, respectively.
